Data reported in US7163799B2, “Neuromedin U receptor NMUR2 and nucleotides encoding it” (Merck & Co., Inc., priority 2000, dated 2007).
Where no end group is shown, it is not given here.

Tests used:
Format in all cases: in vivo, rat
rats [1] = test: Food intake and feeding duration in rats after ICV administration; conditions: for overnight food intake, change expressed as percentage of control group: n=12 per group
Method: Male rats (Charles River Sprague Dawley) weighing 250–350 g were maintained in a temperature and humidity controlled facility with a 12 hour light/dark cycle (4:00 AM lights on). Rats were individually housed in custom designed shoebox cages on wire floors and fed ad libitum with fresh diet provided daily. […] Attached to the food drawers was an infrared feeding monitor that projects a beam across the drawer above the food (MiniMitter, Inc., Sun River, Oreg.). When the animal broke the infrared beam it caused a switch closure. An oscillator then sent off pulses (one pulse/second) and the total number of pulses indicated the length of time that the beam was broken which corresponds to the length of time spent feeding (recorded as feeding duration).
Cannulation and ICV administration were performed essentially as described in Murphy et al 1998 Neuropeptides 32:491–497, which is hereby incorporated by reference. After cannulation, rats were allowed to recover a minimum of seven days before injection with test compounds. All test substances were dissolved in artificial cerebral spinal fluid (aCSF). Rats were injected ICV with 1, 3, or 10 μg of rat NMU-23 (Phoenix Pharmaceuticals). Additional rats were injected ICV with either 0.3 or 0.03 μg of MT-II (Peninsula Laboratories) as a positive control for food intake suppression (melanocortin receptor agonist). […] Another group of ICV-cannulated rats were used in conditioned taste aversion (CTA) and sodium appetite (SA) aversion assays.

rats [2] = test: Conditioned taste aversion (CTA) assay in rats; conditions: for saccharin intake relative to total intake (taste aversion): 24 hours post-dosing
Method: In the CTA study, rats were conditioned to two hour daily access to water, with access to water from two bottles for two hours each day for three days. On the fourth day, rats were given 0.15% saccharin for the two hour period instead of water and saccharin consumption measured. Rats were injected NMU-23 (0, 3, or 10 μg, ICV). LiCl was used as a positive control (0.15 M; 2 ml/kg, i.p.). On the fifth day, rats were given saccharin alone for the first hour, then water was added for the remaining 23 hours. Fluid consumption was measured at 1, 2, and 24 hours post injection. Aversion was assessed as a function of drinking preferences.

rats [3] = test: Sodium (salt) appetite aversion assay in rats; conditions: sodium-depleted rats
Method: In the salt appetite assay, rats were given 0.5 M NaCl salt water to drink for three days along with food and regular water. After three days, two injections of furosemide (5 mg /0.2 ml, s.c.) were given at one hour apart to sodium-deplete the rats. Rats were then returned to salt-free water and given a sodium-deficient diet. Rats actively seek to defend their internal sodium levels. Consequently, when sodium is depleted, they will avidly drink salt solutions unless ill or nauseous. Twenty-four hours following furosemide administration, rats were given NMU (0, 3, or 10 μg, ICV), or LiCl (0.15 M, 2 ml/kg, i.p.) and given water and 0.5 M NaCl to drink. Fluid consumption was measured 1, 2, and 24 hours post dosing.

## MT-II
Rats [1]; 0.3 μg ICV, positive control
  overnight food intake: significantly decreased
Rats [1]; ICV, positive control
  cumulative feeding duration, change: −71%

## [Cl-].[Li+] [LiCl]
Rats [2]; 0.15 M, 2 ml/kg i.p., emetic control
  saccharin intake (taste aversion): decreased saccharin intake
Rats [3]; 0.15 M, 2 ml/kg i.p.
  salt intake (sodium appetite): significantly decreased salt intake

## YKVNEYQGPVAPSGGFFLFRPRN-NH2 [NMU]
Rats [1]; 3 μg ICV
  cumulative feeding duration, change: −33%
  overnight food intake, change expressed as percentage of control group: −38±6%
Rats [1]; 10 μg ICV
  cumulative feeding duration, change: −39%
  overnight food intake, change expressed as percentage of control group: −32±3%
Rats [2]; 3 μg ICV
  saccharin intake relative to total intake (taste aversion): did not decrease saccharin intake
Rats [2]; 10 μg ICV
  saccharin intake relative to total intake (taste aversion): did not decrease saccharin intake
Rats [3]; 3 μg ICV
  total amount of salt intake (sodium appetite): did not significantly change
Rats [3]; 10 μg ICV
  total amount of salt intake (sodium appetite): did not significantly change
